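Assay format: 96-well plates, 48-hour exposure. TGI: total growth inhibition.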
Key:
Test in all cases: NCI tumour cell line growth inhibition, 48 h
P388/ADR leukemia = test system: P388/ADR leukemia
P388 leukemia = test system: P388 leukemia
SN12K1 renal = test system: SN12K1 renal
DU-145 prostate = test system: DU-145 prostate
T-47D breast = test system: T-47D breast
MDA-N = test system: MDA-N
PC-3 prostate = test system: PC-3 prostate
HS 578T breast = test system: HS 578T breast
BT-549 breast = test system: BT-549 breast
MDA-MB-231 breast = test system: MDA-MB-231 breast
MDA-MB-435 = test system: MDA-MB-435

Row | Structure (SMILES) | TGI (P388/ADR leukemia) [µM] | TGI (P388 leukemia) [µM] | TGI (SN12K1 renal) [µM] | TGI (DU-145 prostate) [µM] | TGI (T-47D breast) [µM] | TGI (MDA-N) [µM] | TGI (PC-3 prostate) [µM] | TGI (HS 578T breast) [µM] | TGI (BT-549 breast) [µM] | TGI (MDA-MB-231 breast) [µM] | TGI (MDA-MB-435) [µM]
1 | COc1ccc(N[C@@H]2c3cc4c(cc3C(c3cc(OC)c(O)c(OC)c3)[C@H]3C(=O)OCC32)OCO4)cc1OC (stereo partly specified) | 10.3 | 10.9 | > 34.8 | – | – | – | – | – | – | – | –
2 | O=C(NCCN(CCNC(=O)c1cccc(=O)n1O)CCNC(=O)c1cccc(=O)n1O)c1cccc(=O)n1O | – | – | – | > 100 | > 100 | > 100 | > 100 | > 100 | > 100 | > 100 | > 100

— PubChem BioAssay (NCI)
